For seven compounds, IC50 results are on record in ChEMBL document CHEMBL4000169, “Overexpression of the Global Regulator LaeA in Chaetomium globosum Leads to the Biosynthesis of Chaetoglobosin Z” (J Nat Prod, 2016).

The structures appear in SMILES notation.

The assay concerns HepG2. The experiment in a line: Cytotoxicity against human HepG2 cells by MTT assay. The assay is classed as functional, cell-based.

In turn, `CC1=C(C)[C@H]2[C@H](Cc3c[nH]c4ccccc34)NC(=O)[C@]23C(=O)CCC(=O)[C@H](O)/C(C)=C/[C@@H](C)C/C=C/[C@H]3[C@@H]1O` returned an IC50 of 8.5 µM.

Compound `C/C1=C\[C@@H](C)C/C=C/[C@H]2C(=O)[C@@H](C)[C@@H](C)[C@H]3[C@H](Cc4c[nH]c5ccccc45)NC(=O)[C@]32C(=O)/C=C/C(=O)[C@@H]1O` showed a half-inhibitory concentration (IC50) of 2.9 µM.

`CC1=C(O)C(=O)[C@H]2CC(=O)[C@@]34C(=O)N[C@@H](Cc5c[nH]c6ccccc56)[C@@H]3C(C)=C(C)[C@@H](O)[C@@H]4/C=C/C[C@H](C)[C@H]12` displayed an IC50 of 12.8 µM.

Regarding `C/C1=C\[C@@H](C)C/C=C/[C@H]2[C@@H]3O[C@]3(C)[C@@H](C)[C@H]3[C@H](Cc4c[nH]c5ccccc45)NC(=O)[C@]32C(=O)/C=C/C(=O)[C@@H]1O` [CHAETOGLOBOSIN A], the IC50 was found to be 6.3 µM.

`CC1=C(C)[C@H]2[C@H](Cc3c[nH]c4ccccc34)NC(=O)[C@]23C(=O)CC[C@H](O)C(=O)/C(C)=C/[C@@H](C)C/C=C/[C@H]3[C@@H]1O` [CHAETOGLOBOSIN E] registered an IC50 of 3.6 µM.

The compound `CC1=C(C)[C@H]2[C@H](Cc3c[nH]c4ccccc34)NC(=O)[C@]23C(=O)/C=C/C(=O)[C@H](O)/C(C)=C/[C@@H](C)C/C=C/[C@H]3[C@@H]1O` [CHEATOGLOBOSIN B] showed a half-maximal inhibitory concentration (IC50) of 5.2 µM.

The compound `COc1cc([C@@H]2c3cc4c(cc3[C@@H](O[C@@H]3O[C@@H]5CO[C@@H](C)O[C@H]5[C@H](O)[C@H]3O)[C@H]3COC(=O)[C@H]23)OCO4)cc(OC)c1O` [ETOPOSIDE] showed an IC50 of 15.8 µM.

What is called IC50 is the concentration needed to halve the response being measured. Low readings indicate higher potency, high ones lower potency.
